Patent US9000176B2, “Pyrazole derivatives, preparation method thereof, and composition for prevention and treatment of osteoporosis containing same” (Ewha University—Industry Collaboration Foundation, priority 2009, dated 2015)

System: generation of reactive oxygen species in the murine kidney membrane
Assay: Lucigenin-based assay of reactive oxygen species generation in isolated kidney membrane
Assay type: biochemical, rat (Rattus norvegicus)
Conditions: 37° C. for 10 minutes, luminescence, compound 40, 10, 2.5, 0.625, 0 μM, read-out: EC50 (inhibition of generation of reactive oxygen species)
Experimental: A kidney was isolated from a rat (Rattus norvegicus) and washed with phosphate buffered saline (PBS). The tissue was soaked in 20 mL of PBS buffer containing a protease inhibitor (Aprotinin 1 μg/mL-USB 11388, Leupeptin 1 μg/mL-USB-18413), finely disrupted using a mixer, and then transferred to a 50 mL conical tube (SPL 50050), followed by centrifugation at 10000 g for 10 minutes (MF-600 plus, Hanil) to sediment the undisrupted tissue. The supernatant was separated and collected in a fresh tube. The tube was placed in ice and subjected to sonication about 4 times each cycle for 30 seconds until the supernatant became clear (Branson Digital Sonifier, Model CE Converter 102C). The supernatant was transferred to a high-speed centrifugation tube (Beckman 331372) and then centrifuged at 100000 g for 1 hour (Optima™ L-90 K Preparative Ultracentrifuge, SW41Ti rotor, Beckman). After the supernatant was discarded, the remaining pellet was washed once with cold PBS and dissolved in 500 μL of cold PBS containing a protease inhibitor to obtain a murine kidney membrane.
Reactive oxygen species generated in the thus-obtained kidney membrane was analyzed by a lucigenin-based assay.
Specifically, each of the compounds synthesized in Examples of the present invention (40 μM, 10 μM, 2.5 μM, 0.625 μM, and 0 μM) was placed in a luminescence assay microplate, and the isolated kidney membrane and lucigenin were sequentially added thereto, followed by incubation at 37° C. for 10 minutes. Then, the intensity of luminescence was measured in a luminometer (MicroLumatPlus LB96V Microplate Luminometer, Berthold) to assay the generation of reactive oxygen species in the murine kidney membrane, followed by calculating an EC50 value of the inventive compounds.

EC50 [nM]	SMILES
400	Oc1cc(-c2cccc(-c3cccc(-c4ccccc4)c3)c2)nn1-c1ccccn1 [Compound 67, 3-(3′-phenylbiphenyl-3-yl)-1-(pyridin-2-yl)-1H-pyrazol-5-ol]
2500	Oc1cc(-c2ccc(-c3ccc(Br)cc3)cc2)nn1-c1ccccn1 [Compound 72, 3-(4′-bromobiphenyl-4-yl)-1-(pyridin-2-yl)-1H-pyrazol-5-ol]
400	Oc1cc(-c2ccc(-c3ccccc3Oc3ccccc3)cc2)nn1-c1ccccn1 [Compound 74, 3-(2′-phenoxybiphenyl-4-yl)-1-(pyridin-2-yl)-1H-pyrazol-5-ol]
600	Oc1cc(-c2ccc(-c3ccccc3)cc2)nn1-c1ncccn1 [Compound 75, 3-(biphenyl-4-yl)-1-(pyrimidin-2-yl)-1H-pyrazol-5-ol]
10000	CCCc1c(-c2ccccc2)nn(-c2ccccn2)c1O [Compound 78, 3-phenyl-4-propyl-1-(pyridin-2-yl)-1H-pyrazol-5-ol]
3000	Oc1c(Cc2ccccc2)c(-c2ccccc2)nn1-c1ccccn1 [Compound 79, 4-benzyl-3-phenyl-1-(pyridin-2-yl)-1H-pyrazol-5-ol]

Further lines, the molecule ahead of its results:

SMILES	EC50 [nM]
Oc1cc(-c2ccc(Br)cc2)nn1-c1ccccn1 [Compound 15, 3-(4-bromophenyl)-1-(pyridin-2-yl)-1H-pyrazol-5-ol]	1200
Oc1cc(-c2ccccc2I)nn1-c1ccccn1 [Compound 16, 3-(2-iodophenyl)-1-(pyridin-2-yl)-1H-pyrazol-5-ol]	2500
Oc1cc(-c2cccc(I)c2)nn1-c1ccccn1 [Compound 17, 3-(3-iodophenyl)-1-(pyridin-2-yl)-1H-pyrazol-5-ol]	700
Oc1cc(-c2ccc(I)cc2)nn1-c1ccccn1 [Compound 18, 3-(4-iodophenyl)-1-(pyridin-2-yl)-1H-pyrazol-5-ol]	450
Oc1cc(-c2ccc(I)cc2)nn1-c1ncccn1 [Compound 19, 3-(4-iodophenyl)-1-(pyrimidin-2-yl)-1H-pyrazol-5-ol]	800
CC(C)[Si](Oc1cc(-c2ccc(I)cc2)nn1-c1ccccn1)(C(C)C)C(C)C [Compound 20, 2-(3-(4-iodophenyl)-5-(triisoropylsilyloxy)-1H-pyrazol-1-yl)pyridine]	1500
CC(=O)Oc1cc(-c2ccc(Br)cc2)nn1-c1ccccn1 [Compound 26, 3-(4-bromophenyl)-1-(pyridin-2-yl)-1H-pyrazol-5-yl acetate]	1300
CC(C)(C)OC(=O)Oc1cc(-c2ccc(-c3ccccc3)cc2)nn1-c1ncccn1 [Compound 48, 3-(biphenyl-4-yl)-1-(pyrimidin-2-yl)-1H-pyrazol-5-yl tert-butyl carbonate]	1200
CC(C)[Si](Oc1cc(-c2ccc(-c3ccc(Br)cc3)cc2)nn1-c1ccccn1)(C(C)C)C(C)C [Compound 51, 2-(3-(4′-bromobiphenyl-4-yl)-5-(triisopropylsilyloxy)-1H-pyrazol-1-yl)pyridine]	400
c1ccc(B(Oc2cc(-c3ccc(-c4ccccc4)cc3)nn2-c2ccccn2)c2ccccc2)cc1 [Compound 52, 2-(3-(biphenyl-4-yl)-5-(diphenylboryloxy)-1H-pyrazol-1-yl)pyridine]	500
Oc1cc(-c2ccc(-c3ccccc3)cc2)nn1-c1ccccn1 [Compound 54, 3-(biphenyl-4-yl)-1-(pyridin-2-yl)-1H-pyrazol-5-ol]	400
Oc1cc(-c2ccc(-c3ccc4c(c3)OCO4)cc2)nn1-c1ccccn1 [Compound 55, 3-(4-(benzo[d][1,3]-dioxol-5-yl)phenyl)-1-(pyridin-2-yl)-1H-pyrazol-5-ol]	500
Oc1cc(-c2ccccc2-c2ccc3c(c2)OCO3)nn1-c1ccccn1 [Compound 59, 3-(2-(benzo[d][1,3]dioxol-5-yl)phenyl)-1-(pyridin-2-yl)-1H-pyrazol-5-ol]	1400
Oc1cc(-c2cccc(-c3ccccc3)c2)nn1-c1ccccn1 [Compound 61]	400
Oc1cc(-c2cccc(-c3ccccc3Oc3ccccc3)c2)nn1-c1ccccn1 [Compound 65, 3-(2′-phenoxybiphenyl-3-yl)-1-(pyridin-2-yl)-1H-pyrazol-5-ol]	625
